Results as given in paper PMC6403188, “Species-Specific Structural Requirements of Alpha-Branched Trehalose Diester Mincle Agonists” (Frontiers in Immunology, 2019).

Legend:
[1] = biological target: T1, human Mincle (Homo sapiens, UniProt Q9ULY5); assay: HEK cells expressing human Mincle with NF-κB-driven SEAP reporter; format: cell-based; conditions: plate-coated compound, 24 h
T1 construct: host or cells: HEK (HEK-Blue) cells with NF-κB-driven SEAP reporter
T1 sequence (Q9ULY5 1-219): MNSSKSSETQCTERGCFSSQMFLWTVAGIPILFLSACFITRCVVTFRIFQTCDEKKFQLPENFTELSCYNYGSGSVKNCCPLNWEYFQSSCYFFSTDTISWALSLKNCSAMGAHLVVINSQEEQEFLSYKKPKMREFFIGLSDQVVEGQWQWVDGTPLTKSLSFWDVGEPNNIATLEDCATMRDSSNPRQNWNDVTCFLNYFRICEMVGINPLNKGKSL
Protocol: Human and mouse Mincle expressing HEK cells were obtained from Invivogen (San Diego, CA). Cells were cultured according to the manufactures instructions in DMEM with 10% FBS, 50 U/ml penicillin, […] streptomycin, […] Normocin, 2 mM L-glutamine, 30 μg/ml blasticidin, 1 μg/ml puromycin and 1x HEK-Blue™ CLR Selection. For assay, indicated compounds were serially diluted in diluent (50%IPA/50% isooctane), 20 μl of a 10x final concentration were applied to the bottom of a 96-well tissue culture plate and the solvent was evaporated for >1 h in a biosafety hood. HEK cells were applied to the plates at a density of 3 × 10^5 cells/well and incubated for 18–24 h at 37°C. Cell supernatants were harvested and analyzed via the manufacturer's instructions using Hek-Blue^TM Detection. SEAP activity was assessed by reading the optical density (OD) at 620–655 nm with a microplate reader; data are expressed as the fold change in OD over vehicle treated cells.
To investigate the capacity of these molecules to bind to and activate the Mincle receptor, we used human embryonic kidney (HEK) cells expressing the human or mouse Mincle receptor along with an NF-κB-driven secreted embryonic alkaline phosphatase (SEAP) reporter. Many of the αTDE compounds were able to induce production of SEAP in a dose dependent manner (Figure 2). HEK null cells (HEK cells containing the NF-kB reporter without Mincle receptor) were used as a negative controls to confirm the receptor specificity of the compounds in HEK cells expressing human or mouse Mincle reporter (Supplemental Figure 4). […] The relative activity of TDM and TDB in the human and mouse HEK cells is consistent with the results reported by others ([20]). […] This synthetic version is a shorter chain version of the lipid-derived one reported to be “human-specific” ([28]).
Figure 2 Activation of human or mouse Mincle in response to synthetic αTDE compounds. The indicated compounds were dissolved in 50% isopropanol/isooctane, serially diluted in vehicle and then dried to the bottom of a tissue culture plate. HEK cells transfected with human (A–C) or mouse (D–F) Mincle and an NF-κB-driven SEAP reporter were incubated with the compounds for 24 h followed by assessment of the supernatants for SEAP levels. Data are represented as fold change in OD650 over vehicle treated cells. Graphs are mean values from three independent experiments ± SEM. Table in (G) represents the average calculated EC50 and average max SEAP value (± SD, n = 3) for each compound in each cell line. […]

[2] = test system: Hek Blue human or mouse Mincle-expressing cells; format: cell-based; conditions: top concentrations, 24 h; compared with vehicle only-treated cells

CCCCCCCCCCCCCCCCCCCCCC(=O)OC[C@H]1O[C@H](O[C@H]2O[C@H](COC(=O)CCCCCCCCCCCCCCCCCCCCC)[C@@H](O)[C@H](O)[C@H]2O)[C@H](O)[C@@H](O)[C@@H]1O [TDB, trehalose dibehenate, reference compound]
SEAP induction / activation of human Mincle-expressing HEK cells (in words) [1]: robust ability to activate
Cell viability of Mincle HEK cells [2]: marked decreases in viability
